pEC50, pIC50: −log10 of the molar value.
Assays:
cells = details: Homo sapiens, OVCAR-3, 96 h
Description: Antiproliferative activity against KIF18A siRNA sensitive human OVCAR-3 cells assessed as decrease in nuclei number measured after 4 days incubation by Hoechst 33342 DNA dye based nuclear count assay (NCA)

[1] = biological target: T1, Kinesin-like protein KIF18A (Homo sapiens, UniProt Q8NI77); experiment: Inhibition of human recombinant KIF18A (1 to 374) assessed as luminescence measured after 70 mins by ADP-Glo motor assay
T1 sequence (Q8NI77 whole entry): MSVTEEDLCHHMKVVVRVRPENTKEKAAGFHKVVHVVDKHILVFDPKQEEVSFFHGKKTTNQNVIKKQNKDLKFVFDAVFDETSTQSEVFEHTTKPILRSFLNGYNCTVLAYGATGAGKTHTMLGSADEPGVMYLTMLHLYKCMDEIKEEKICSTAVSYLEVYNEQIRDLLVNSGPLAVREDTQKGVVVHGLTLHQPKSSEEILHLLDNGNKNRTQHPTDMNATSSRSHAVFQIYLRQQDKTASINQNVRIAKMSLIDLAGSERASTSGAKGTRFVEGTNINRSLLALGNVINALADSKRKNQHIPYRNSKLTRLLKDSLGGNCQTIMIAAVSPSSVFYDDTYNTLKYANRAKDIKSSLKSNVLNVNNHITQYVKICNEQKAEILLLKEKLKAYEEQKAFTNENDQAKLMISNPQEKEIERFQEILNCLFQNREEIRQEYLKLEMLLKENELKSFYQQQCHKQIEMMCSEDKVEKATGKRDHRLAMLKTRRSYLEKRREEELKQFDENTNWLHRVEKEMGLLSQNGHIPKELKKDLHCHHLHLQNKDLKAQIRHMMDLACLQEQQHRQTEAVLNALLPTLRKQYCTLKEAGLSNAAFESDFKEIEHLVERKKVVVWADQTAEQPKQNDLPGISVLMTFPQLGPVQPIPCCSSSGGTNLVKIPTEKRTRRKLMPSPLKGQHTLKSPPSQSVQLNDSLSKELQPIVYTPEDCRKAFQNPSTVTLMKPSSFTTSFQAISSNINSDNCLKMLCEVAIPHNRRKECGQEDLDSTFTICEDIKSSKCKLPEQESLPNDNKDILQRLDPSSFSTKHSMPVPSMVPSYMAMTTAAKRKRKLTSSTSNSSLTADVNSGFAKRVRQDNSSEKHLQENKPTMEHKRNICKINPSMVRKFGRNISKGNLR

[2] = Cmax in Sprague-Dawley rat at 2 mg/kg, po and 1 mg/kg, iv; format: ADME, organism-based; details: in vivo
[3] = AUClast in Sprague-Dawley rat at 2 mg/kg, po and 1 mg/kg, iv; format: ADME, organism-based; details: in vivo
[4] = Half life in Sprague-Dawley rat at 2 mg/kg, po and 1 mg/kg, iv; format: ADME, organism-based; details: in vivo
[5] = Oral bioavailability in Sprague-Dawley rat at 2 mg/kg; format: ADME, organism-based; details: in vivo
NUGC-3 = experiment: Antiproliferative activity against human NUGC-3 cells assessed as chemiluminescence measured after 4 days incubation by Celltiter Glo assay; details: NUGC-3, 96 h
NCI-N87 = experiment: Antiproliferative activity against human NCI-N87 cells assessed as chemiluminescence measured after 4 days incubation by Celltiter Glo assay; details: NCI-N87, 96 h
BXPC-3 = experiment: Antiproliferative activity against human BxPC-3 cells assessed as chemiluminescence measured after 4 days incubation by Celltiter Glo assay; details: BXPC-3, 96 h
[6] = Half life in Balb/c mouse at 30 mg/kg, po; format: ADME, organism-based; details: in vivo
[7] = Cmax in Balb/c mouse at 30 mg/kg, po; format: ADME, organism-based; details: in vivo
[8] = AUC in Balb/c mouse at 30 mg/kg, po; format: ADME, organism-based; details: in vivo
[9] = biological target: T1, Kinesin-like protein KIF18A; experiment: Inhibition of human recombinant KIF18A (1 to 436) by ADP-Glo motor assay
[10] = biological target: T2, Kinesin-like protein KIF11 (Homo sapiens, UniProt P52732); experiment: Inhibition of EG5 (unknown origin) assessed as luminescence measured after 135 mins by ADP-Glo motor assay
T2 sequence (P52732 whole entry): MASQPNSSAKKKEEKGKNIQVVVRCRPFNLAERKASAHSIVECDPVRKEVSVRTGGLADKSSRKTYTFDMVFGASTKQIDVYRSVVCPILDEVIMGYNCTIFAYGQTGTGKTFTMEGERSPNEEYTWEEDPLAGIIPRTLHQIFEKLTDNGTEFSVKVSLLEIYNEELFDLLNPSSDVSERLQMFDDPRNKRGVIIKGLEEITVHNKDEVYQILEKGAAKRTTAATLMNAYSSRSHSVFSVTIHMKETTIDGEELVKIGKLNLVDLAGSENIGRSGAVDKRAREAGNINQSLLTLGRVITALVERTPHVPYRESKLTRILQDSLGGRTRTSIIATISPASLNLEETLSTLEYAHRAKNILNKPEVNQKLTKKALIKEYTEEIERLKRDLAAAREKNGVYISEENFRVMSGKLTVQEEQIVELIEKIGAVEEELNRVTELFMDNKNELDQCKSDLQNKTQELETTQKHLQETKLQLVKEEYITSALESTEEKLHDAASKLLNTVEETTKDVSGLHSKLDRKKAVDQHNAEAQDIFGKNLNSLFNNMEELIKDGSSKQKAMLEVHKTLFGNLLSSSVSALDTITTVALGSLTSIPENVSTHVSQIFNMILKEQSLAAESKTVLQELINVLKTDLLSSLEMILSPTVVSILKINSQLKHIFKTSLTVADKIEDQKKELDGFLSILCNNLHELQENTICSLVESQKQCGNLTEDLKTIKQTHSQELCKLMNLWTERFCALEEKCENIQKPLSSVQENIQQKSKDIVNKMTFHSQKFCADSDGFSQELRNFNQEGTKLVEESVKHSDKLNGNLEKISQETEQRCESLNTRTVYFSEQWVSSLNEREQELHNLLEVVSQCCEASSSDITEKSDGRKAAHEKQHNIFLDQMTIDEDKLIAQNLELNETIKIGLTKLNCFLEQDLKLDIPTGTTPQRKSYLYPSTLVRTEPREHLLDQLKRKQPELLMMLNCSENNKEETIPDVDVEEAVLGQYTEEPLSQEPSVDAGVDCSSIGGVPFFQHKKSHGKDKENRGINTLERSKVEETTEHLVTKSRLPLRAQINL

SMILES: Cc1cc(NC(=O)c2ccc(NS(=O)(=O)CCO)cc2-c2cnn(C)c2)nc(N2CCC(F)(F)CC2)n1
- pEC50 (cells): < 5.00

SMILES: O=C(Nc1cccc(N2CCC(F)(F)CC2)c1)c1ccc(NS(=O)(=O)CCO)cc1C1=CCC2(CC1)CC2
- IC50 [1]: Not Active
- pEC50 (cells): 6.47

SMILES: O=C(Nc1ccc(F)c(N2CCC(F)(F)CC2)n1)c1ccc(NS(=O)(=O)CCO)cc1C1=CCC2(CC1)CC2
- Cmax [2]: 424 ng/mL
- AUC(0-t) [3]: 3400 ng·h/mL
- half-life [4]: 4.7 h
- bioavailability [5]: 67.9%
- pEC50 (cells): 7.39

SMILES: Cc1cc(NC(=O)c2ccc(NS(=O)(=O)CCO)cc2N2CCC3(CC2)CC3)nc(N2CCC(F)(F)CC2)n1 [AMG-650]
- pIC50 (NUGC-3): 6.95
- pIC50 (NCI-N87): 5.13
- pIC50 (BXPC-3): 5.13
- half-life [6]: 7.98 h
- Cmax [7]: 7040 ng/mL
- AUC [8]: 110000 ng·h/mL
- pEC50 (cells): 7.14

SMILES: Cc1cc(NC(=O)c2ccc(NS(=O)(=O)CCO)cc2C2=CCC3(CC2)CC3)nc(C2CCC(F)(F)CC2)n1
- pEC50 (cells): 6.73

SMILES: Cc1cc(NC(=O)c2ccc(NS(=O)(=O)CCO)cc2N2C3CCCC2CC3)nc(N2CCC(F)(F)CC2)n1
- pEC50 (cells): 6.18

SMILES: O=C(Nc1ccnc(N2CCC(F)(F)CC2)c1)c1ccc(NS(=O)(=O)CCO)cc1C1=CCC2(CC1)CC2
- pEC50 (cells): 5.79

SMILES: Cc1cc(NC(=O)c2ccc(NS(=O)(=O)[C@H](C)CO)cc2N2CCC3(CC2)CC3)nc(N2CCC(F)(F)CC2)n1
- pIC50 [9]: 7.15

SMILES: Cc1cc(NC(=O)c2ccc(NS(=O)(=O)CCO)cc2NC2CCCCC2)nc(N2CCC(F)(F)CC2)n1
- pEC50 (cells): < 5.00

SMILES: Cc1cc(NC(=O)c2ccc(NS(=O)(=O)CCO)cc2C2=CCC3(CC2)CC3)nc(N2CCCC2)n1
- pEC50 (cells): 6.24

SMILES: Cc1cc(NC(=O)c2ccc(NS(=O)(=O)CCO)cc2C2=CCN(C)CC2)nc(N2CCC(F)(F)CC2)n1
- pEC50 (cells): < 5.00

SMILES: C[C@H]1CN(c2cccc(NC(=O)c3ccc(NS(=O)(=O)CCO)cc3N3CCC4(CC3)CC4)n2)CCO1
- pIC50 [9]: 7.21

SMILES: Cc1cc(NC(=O)c2ccc(NS(=O)(=O)CCO)cc2C2=CCC3(CC2)CC3)nc(N2CC(F)(F)C2)n1
- pEC50 (cells): 6.86

SMILES: O=C(Nc1cncc(N2CCC(F)(F)CC2)n1)c1ccc(NS(=O)(=O)CCO)cc1C1=CCC2(CC1)CC2
- Cmax [2]: 140 ng/mL
- AUC(0-t) [3]: 322 ng·h/mL
- half-life [4]: 1.2 h
- bioavailability [5]: 22.9%
- pEC50 (cells): 7.78

SMILES: Cc1cc(NC(=O)c2ccc(NS(=O)(=O)CCO)cc2C2=CCC3(CC2)CC3)cc(N2CCC(F)(F)CC2)c1
- IC50 [1]: Not Active
- pEC50 (cells): 6.51

SMILES: Cc1cc(NC(=O)c2ccc(NS(=O)(=O)CCO)cc2C2CCC3(CC2)CC3)nc(N2CCC(F)(F)CC2)n1
- pEC50 (cells): 5.87

SMILES: Cc1cc(NC(=O)c2ccc(NS(=O)(=O)CCO)cc2N2CC3CC3C2)nc(N2CCC(F)(F)CC2)n1 (configuration not stated)
- pEC50 (cells): 5.68

SMILES: O=C(Nc1ccnc(N2CCC(F)(F)CC2)c1F)c1ccc(NS(=O)(=O)CCO)cc1C1=CCC2(CC1)CC2
- pEC50 (cells): 6.69

SMILES: Cc1cc(NC(=O)c2ccc(NS(=O)(=O)CCO)cc2C2=CCC3(CC2)CC3)nc(N2CCC(F)(F)CC2)n1
- pIC50 [10]: < 4.52
- Cmax [2]: 158 ng/mL
- AUC(0-t) [3]: 1610 ng·h/mL
- half-life [4]: 4.2 h
- bioavailability [5]: 69.5%
- pEC50 (cells): 7.15

SMILES: Cc1cc(NC(=O)c2ccc(NS(=O)(=O)CCO)cc2C2=CCC3(CC2)CC3)nc(N2CC3CC3C2)n1 (configuration not stated)
- pEC50 (cells): 6.13

SMILES: Cc1cc(NC(=O)c2ccc(NS(=O)(=O)CCO)cc2N2C3CCC2CC2(CC2)C3)nc(N2CCC(F)(F)CC2)n1
- pEC50 (cells): 6.33

SMILES: O=C(Nc1cccc(N2CCC(F)(F)CC2)n1)c1ccc(NS(=O)(=O)CCO)cc1C1=CCC2(CC1)CC2
- Cmax [2]: 285 ng/mL
- AUC(0-t) [3]: 1340 ng·h/mL
- half-life [4]: 2.2 h
- bioavailability [5]: 40.4%
- pEC50 (cells): 7.74
